Patent publication US9159937B2, “Heteroleptic light-emitting complexes” (SOLVAY SA, priority 2011, dated 2015)
Like-named read-outs stand apart in the source and are kept apart here.

What was measured:
[1] = Solubility evaluation in toluene; type: physicochemical
Description: Solubility evaluation were performed at 25° C. using toluene as solvent.

[2] = Glass transition temperature by DSC; type: physicochemical
Description: The glass transition temperatures Tg were measured using a TA instruments 2920 DSC equipment and data evaluation were done with the TA Instruments Universal Analysis 2000 software.

| Compound | Toluene solubility S at 25° C. [1] | Toluene solubility S at 25° C. ([1]; listed as Ir(2-PhQ)3) [wt %] | Tg [2] [°C] |
| --- | --- | --- | --- |
| [Ir+3].[c-]1ccccc1-c1ccc2ccccc2n1.[c-]1ccccc1-c1ccc2ccccc2n1.[c-]1ccccc1-c1ccc2ccccc2n1 [[Ir(2-PhQ)3], reference compound] | S < 0.02 wt % | < 0.02 |  |
| [Ir(2-PhQ)2(DMC2)] | S > 0.25 wt % |  |  |
| [Ir(n-hexPhQ)3] [reference compound] |  |  | 54 |
